Reference: ChEMBL document CHEMBL4418495, “Entpd5 inhibitors” (2012)
Activity calls are given as the source filed them. No rule for the calls is given here.

Key:
[1] = target: T1, Nucleoside diphosphate phosphatase ENTPD5 (Homo sapiens) (UniProt O75356); assay: Inhibition of human recombinant ENTPD5 expressed in insect cells assessed as reduction in UDP hydrolysis at 1 uM incubated for 1 hr in presence of UMP, GTP and ATP by Escherichia coli UMP kinase pyrH catalyzed UMP phosphorylation coupled luciferase assay
T1 sequence (whole entry): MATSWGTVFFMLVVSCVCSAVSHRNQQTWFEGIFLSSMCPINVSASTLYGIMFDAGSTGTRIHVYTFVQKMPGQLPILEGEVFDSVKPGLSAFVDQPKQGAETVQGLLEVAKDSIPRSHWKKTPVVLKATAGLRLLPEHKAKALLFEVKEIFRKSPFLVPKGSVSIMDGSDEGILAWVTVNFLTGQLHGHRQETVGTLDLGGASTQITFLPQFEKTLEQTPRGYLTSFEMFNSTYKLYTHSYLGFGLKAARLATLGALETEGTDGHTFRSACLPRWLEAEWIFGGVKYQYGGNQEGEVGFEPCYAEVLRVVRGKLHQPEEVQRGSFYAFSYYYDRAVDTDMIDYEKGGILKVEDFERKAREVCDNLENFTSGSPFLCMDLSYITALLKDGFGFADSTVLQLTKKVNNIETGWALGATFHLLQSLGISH

[2] = target: T1, Nucleoside diphosphate phosphatase ENTPD5 (Homo sapiens); assay: Inhibition of human recombinant ENTPD5 expressed in insect cells assessed as reduction in UDP hydrolysis up to 10 uM incubated for 1 hr in presence of UMP, GTP and ATP by Escherichia coli UMP kinase pyrH catalyzed UMP phosphorylation coupled luciferase assay
[3] = target: T2, Uridylate kinase (Escherichia coli (strain K12)) (UniProt P0A7E9); assay: Inhibition of recombinant Escherichia coli UMP kinase pyrH catalyzed UMP phosphorylation in presence of GTP and ATP incubated for 1 hr by luminescence based assay
T2 sequence (whole entry): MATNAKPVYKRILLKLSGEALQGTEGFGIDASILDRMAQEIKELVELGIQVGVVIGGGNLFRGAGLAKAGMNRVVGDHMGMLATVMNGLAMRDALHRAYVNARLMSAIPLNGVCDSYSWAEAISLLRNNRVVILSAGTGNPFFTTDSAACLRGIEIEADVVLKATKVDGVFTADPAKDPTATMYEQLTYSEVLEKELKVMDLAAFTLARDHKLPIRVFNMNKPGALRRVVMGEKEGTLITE

[4] = target: T1, Nucleoside diphosphate phosphatase ENTPD5 (Homo sapiens); assay: Inhibition of human recombinant ENTPD5 expressed in insect cells assessed as reduction in reduction in UDP hydrolysis by measuring inorganic phosphate release incubated for 1 hr by malachite green based assay

## Cc1cc(/C=C2\C(=O)NC(=S)N(c3cccc(Cl)c3)C2=O)c(C)n1-c1ccc(Br)cc1
[1]
  inhibition: Active
[2]
  inhibition: Dose-dependent effect
[3]
  inhibition: inactive
[4]
  inhibition: Active

## O=c1cc(-c2ccco2)nc(-c2ccco2)o1
[1]
  inhibition: Active
[2]
  inhibition: Dose-dependent effect
[3]
  inhibition: inactive
[4]
  inhibition: Active

## O=C(Nc1c[nH]c(=O)[nH]c1=O)c1cccc(N2C(=O)c3ccc([N+](=O)[O-])cc3C2=O)c1
[1]
  inhibition: Active
[2]
  inhibition: Dose-dependent effect
[3]
  inhibition: inactive
[4]
  inhibition: Active

## N#CC1=C(N)C(C#N)(C#N)C(c2ccc(OCc3ccc(Cl)cc3)c([N+](=O)[O-])c2)C2CCCC=C12 (configuration not stated)
[1]
  inhibition: Active
[2]
  inhibition: Dose-dependent effect
[3]
  inhibition: inactive
[4]
  inhibition: Active

## O=C1NC(=O)N(Cc2ccco2)C(=O)/C1=C\c1ccc(-c2ccc(Cl)c([N+](=O)[O-])c2)o1
[1]
  inhibition: Active
[2]
  inhibition: Dose-dependent effect
[3]
  inhibition: inactive
[4]
  inhibition: Active

## O=C(c1ccc2c(c1)C1C=CCC1C(c1ccc(Br)cc1)N2)N1CCCCCC1 (configuration not stated)
[1]
  inhibition: Active
[2]
  inhibition: Dose-dependent effect
[3]
  inhibition: inactive
[4]
  inhibition: Active

## O=C1N=C2C=CC(I)=CC2C1NNc1cccc2cccnc12 (configuration not stated)
[1]
  inhibition: Active
[2]
  inhibition: Dose-dependent effect
[3]
  inhibition: inactive
[4]
  inhibition: Active

## CN1C(=O)C(=Cc2ccc(Sc3ccccc3)o2)C(=O)N(C)C1=S
[1]
  inhibition: Active
[2]
  inhibition: Dose-dependent effect
[3]
  inhibition: inactive
[4]
  inhibition: Active

## O=C(O)C1=CC(C(c2ccc(O)c(C(=O)O)c2)c2ccc(O)c(C(=O)O)c2)C=CC1=O (configuration not stated)
[1]
  inhibition: Active
[2]
  inhibition: Dose-dependent effect
[3]
  inhibition: inactive
[4]
  inhibition: Active

## NC(=O)c1cc2cc(Br)ccc2o/c1=N\c1cc(C(F)(F)F)ccc1N1CCCCC1
[1]
  inhibition: Active
[2]
  inhibition: Dose-dependent effect
[3]
  inhibition: inactive
[4]
  inhibition: Active

## Cc1ccnc(NC(c2ccc3cccnc3c2O)c2sccc2C)c1 (configuration not stated)
[1]
  inhibition: Active
[2]
  inhibition: Dose-dependent effect
[3]
  inhibition: inactive
[4]
  inhibition: Active

## COC(=O)Cn1c(/C=C2\C(=O)NC(=S)N(c3cccc(Br)c3)C2=O)cc2ccccc21
[1]
  inhibition: Active
[2]
  inhibition: Dose-dependent effect
[3]
  inhibition: inactive
[4]
  inhibition: Active

## O=C1C=Cc2ccccc2/C1=C/NNC(=O)C(O)(c1ccccc1)c1ccccc1
[1]
  inhibition: Active
[2]
  inhibition: Dose-dependent effect
[3]
  inhibition: inactive
[4]
  inhibition: Active

## Cc1ccc(C2=C/C(=C/c3ccc(C)c([N+](=O)[O-])c3)C(=O)O2)c(C)c1
[1]
  inhibition: Active
[2]
  inhibition: Dose-dependent effect
[3]
  inhibition: inactive
[4]
  inhibition: Active

## CCN(CC)c1ccc(C(Nc2ccccn2)c2ccc3cccnc3c2O)cc1 (configuration not stated)
[1]
  inhibition: Active
[2]
  inhibition: Dose-dependent effect
[3]
  inhibition: inactive
[4]
  inhibition: Active

## COc1cccc(OCCn2cc(/C=C3/C(=N)N4N=C(C(C)C)SC4=NC3=O)c3ccccc32)c1
[1]
  inhibition: Active
[2]
  inhibition: Dose-dependent effect
[3]
  inhibition: inactive
[4]
  inhibition: Active

## O=C1Nc2ccc(Br)cc2/C1=C1/SC(=S)N(c2ccc(Cl)cc2)C1=O
[1]
  inhibition: Active
[2]
  inhibition: Dose-dependent effect
[3]
  inhibition: inactive
[4]
  inhibition: Active

## COc1ccc(-n2cccc2/C=C2\C(=O)NC(=S)N(c3ccc(Br)cc3)C2=O)cc1
[1]
  inhibition: Active
[2]
  inhibition: Dose-dependent effect
[3]
  inhibition: inactive
[4]
  inhibition: Active

## Cn1cc(C(c2ccc(O)c(O)c2O)c2cn(C)c3ccccc23)c2ccccc21
[1]
  inhibition: Active
[2]
  inhibition: Dose-dependent effect
[3]
  inhibition: inactive
[4]
  inhibition: Active

## O=S(=O)(Nc1ccccc1F)c1ccc2c(c1)[C@@H]1C=CC[C@@H]1[C@@H](c1ccc(F)cc1)N2
[1]
  inhibition: Active
[2]
  inhibition: Dose-dependent effect
[3]
  inhibition: inactive
[4]
  inhibition: Active

## CCc1ccc(NC2=NC(=O)/C(=C/c3cc(Cl)c(OCC(=O)O)c(Cl)c3)S2)cc1
[1]
  inhibition: Active
[2]
  inhibition: Dose-dependent effect
[3]
  inhibition: inactive
[4]
  inhibition: Active

## N=C1NC(=O)/C(=C/C=C/c2ccc([N+](=O)[O-])o2)S1
[1]
  inhibition: Active
[2]
  inhibition: Dose-dependent effect
[3]
  inhibition: inactive
[4]
  inhibition: Active

## COc1ccc(N2C(=O)/C(=C/c3cccn3-c3ccc(Br)cc3)C(=O)NC2=S)cc1
[1]
  inhibition: Active
[2]
  inhibition: Dose-dependent effect
[3]
  inhibition: inactive
[4]
  inhibition: Active

## Cc1ccc(C)c(-c2nn(-c3ccccc3)cc2C=C2C(=O)NC(=O)NC2=O)c1
[1]
  inhibition: Active
[2]
  inhibition: Dose-dependent effect
[3]
  inhibition: inactive
[4]
  inhibition: Active

## C#CCn1cc(/C=C2\C(=O)NC(=S)N(c3ccc(Br)cc3)C2=O)c2ccccc21
[1]
  inhibition: Active
[2]
  inhibition: Dose-dependent effect
[3]
  inhibition: inactive
[4]
  inhibition: Active

## O=C1/C(=C/c2ccc(O)c(O)c2)SC(=S)N1c1ccc([N+](=O)[O-])cc1
[1]
  inhibition: Active
[2]
  inhibition: Dose-dependent effect
[3]
  inhibition: inactive
[4]
  inhibition: Active

## O=S(=O)(c1cccc(C(F)(F)F)c1)N(CCc1csc2nc(-c3ccc4ccccc4c3)cn12)Cc1ccco1
[1]
  inhibition: Active
[2]
  inhibition: Dose-dependent effect
[3]
  inhibition: inactive
[4]
  inhibition: Active

## CC(=O)c1ccc(-c2ccc(/C=C3\C(=O)NC(=S)N(c4ccc(Br)cc4)C3=O)o2)cc1
[1]
  inhibition: Active
[2]
  inhibition: Dose-dependent effect
[3]
  inhibition: inactive
[4]
  inhibition: Active

## Cc1ccc2ncc(C(CC(=O)N3CCN(C(c4ccccc4)c4ccccc4)CC3)c3ccc4c(c3)OCO4)n2c1 (configuration not stated)
[1]
  inhibition: Active
[2]
  inhibition: Dose-dependent effect
[3]
  inhibition: inactive
[4]
  inhibition: Active

## CC1=NN(c2ccc(S(N)(=O)=O)cc2)C(=O)/C1=C/c1ccc(-c2ccc(C)cc2[N+](=O)[O-])o1
[1]
  inhibition: Active
[2]
  inhibition: Dose-dependent effect
[3]
  inhibition: inactive
[4]
  inhibition: Active

## CCc1ccc(NS(=O)(=O)c2ccc(N3C(=O)c4cc([N+](=O)[O-])cc5cc([N+](=O)[O-])cc(c45)C3=O)cc2)cc1
[1]
  inhibition: Active
[2]
  inhibition: Dose-dependent effect
[3]
  inhibition: inactive
[4]
  inhibition: Active

## N#Cc1ccccc1COc1ccc(/C=C2/SC(=S)NC2=O)cc1Br
[1]
  inhibition: Active
[2]
  inhibition: Dose-dependent effect
[3]
  inhibition: inactive
[4]
  inhibition: Active

## O=C1NC(=S)N(c2ccc(Br)cc2)C(=O)/C1=C/c1ccc(-c2ccc(F)cc2)o1
[1]
  inhibition: Active
[2]
  inhibition: Dose-dependent effect
[3]
  inhibition: inactive
[4]
  inhibition: Active

## Cc1ccc(NC2=NC(=O)/C(=C/c3ccc(-c4ccc(C(=O)O)cc4)o3)S2)cc1Cl
[1]
  inhibition: Active
[2]
  inhibition: Dose-dependent effect
[3]
  inhibition: inactive
[4]
  inhibition: Active

## O=C1C=CC(=O)c2c1ccc1c2ccc2ccccc21
[1]
  inhibition: Active
[2]
  inhibition: Dose-dependent effect
[3]
  inhibition: inactive
[4]
  inhibition: Active

## O=C1/C(=C/c2cc([N+](=O)[O-])cc(Br)c2O)SC(=S)N1c1ccc([N+](=O)[O-])cc1
[1]
  inhibition: Active
[2]
  inhibition: Dose-dependent effect
[3]
  inhibition: inactive
[4]
  inhibition: Active

## O=C(O)c1ccc(NC(=O)c2ccc3c(c2)C(=O)N(c2ccc(/N=N/c4ccccc4)cc2)C3=O)cc1
[1]
  inhibition: Active
[2]
  inhibition: Dose-dependent effect
[3]
  inhibition: inactive
[4]
  inhibition: Active

## COc1cc(-c2ccc(/C=C/c3[nH]c(=O)[nH]c(=O)c3[N+](=O)[O-])o2)c(OC)cc1Cl
[1]
  inhibition: Active
[2]
  inhibition: Dose-dependent effect
[3]
  inhibition: inactive
[4]
  inhibition: Active
